Measurements from US20240091366A1, “NOVEL ACID-SENSITIVE APTAMER TRIPTOLIDE CONJUGATE AND APPLICATIONS” (priority 2022, published 2024).

Legend:
[1] = background art; cited from earlier work
[2] = MTT assay, cytotoxicity on normal cells; assay type: cell-based, human; conditions: 48 h
Procedure: The same materials as those in Part II above are not repeated here, in addition to the following: human normal hepatocytes LO2, human embryonic kidney cells HEK293 were purchased from the Shanghai Cell Bank of the Chinese Academy of Sciences and preserved in our laboratory.
Take the […] LO2 and HEK293 cell lines from the liquid nitrogen tank, place them in a 37° C. water bath, wait for the frozen cells to melt into cell suspension, centrifuge the cells at 1000 r/min for 3 min, discard the supernatant, add 1 ml of fresh complete medium containing 10% fetal bovine serum and 1% double antibody to mix the cells, then add 5 ml of medium, gently and repeatedly blowing the cells with a pipette gun to make them mix well. Then add 5 ml of medium, blow the cells gently and repeatedly with a pipette gun to mix them well, and finally transfer the cell suspension to a […] and label the cell name, cell number, date of resuscitation and the operator's name, and place it in a cell culture incubator for cultivation. (HEK293 cell line was cultured with DMEM medium, LO2 cell line was cultured with RPMI1640 medium)
Take LO2 and HEK293 cells with good growth status, remove the medium, add 1 ml of sterile PBS to wash, add 1.5 ml of trypsin to digest the cells, about 2 min later the cells become round and fall off, add 1.5 ml of medium to terminate the digestion, transfer it to centrifugal tube, centrifuge at 1000 r/min for 3 min, discard the supernatant, add 1 ml of fresh medium to resuspend, then add fresh medium for 1:3 distribution to other culture dishes, and label the date of transmission and the number of generations. Place in the cell culture incubator for cultivation.
Take LO2 and HEK293 cells with good growth status, by the same operation as the cell passaging experiment, after cell resuspension, cell counting with hemocyte counting plate, with 3000 cells/well, plant in 96-well plate, after 24 h of cell culture, remove the original medium, add medium containing different concentrations of drugs and continue to cultivate for 48 hours. After 24 h of cell culture, the original medium was removed and the medium containing different concentrations of drugs was added to continue the culture for 48 hours. […] The above steps were repeated three times.

[3] = system: tumor cells; conditions: background art; cited from earlier work
[4] = Body weight during administration, lung cancer model
Procedure: (§1) Experimental protocol: Female nude mice were reared for 6-7 weeks under standard environment, lung cancer cell line A549 were suspended in serum-free medium, and each mouse was inoculated with 6*10^6 tumor cells. When the tumor volume reached 50-100 mm^3, the mice were randomly divided into 4 groups, and were injected with aptamer triptolide conjugate, triptolide, and aptamer by tail vein, respectively, 12 mice in each group. A PBS negative control group was set up. […] The drugs were administered once every 2 days for 8 consecutive doses, and the experiment was ended 24 hours after the last dose. At the end of the experiment, the animals were executed by breaking the cervical vertebrae, and the tumors were stripped and weighed to calculate the tumor growth inhibition rate of the drug. The t-test was used to compare the tumor weight, tumor volume, RTV and other indexes of the animals in each group.

[5] = system: lung cancer cell line A549; assay: In vivo antitumor activity, lung cancer xenograft in nude mice; design: species or system mouse; Tumor weight: unit not given here; conditions: A549 model, once every 2 days, 8 doses
Source text: The following are the in vivo activity studies conducted in different tumor-bearing mice:
A PBS negative control group was set up.

[6] = Body weight during administration, breast cancer model
Procedure: as §1, with “Specific experimental” for “Experimental”, “breast” for “lung”, “cells MDA-MB-231” for “cell line A549”

| Compound | solubility in water [1] | IC50 at 48 h ([2]; human, LO2 normal hepatocyte cells, normal hepatocytes LO2, MTT) [nM] | IC50 at 48 h ([2]; normal human embryonic kidney cells HEK293, MTT) [nM] | concentration effectively inhibiting the proliferation of tumor cells [3] [ng/mL] | body weights of mice ([4]; mouse, in vivo) | RTV ([5]; 10 μM tail vein) | T/C (%) ([5]; 10 μM tail vein) | Tumor inhibition rate (%) ([5]; 10 μM tail vein) | Tumor weight ([5]; 10 μM tail vein) | RTV ([5]; 30 μM tail vein) | T/C (%) ([5]; 30 μM tail vein) | Tumor inhibition rate (%) ([5]; 30 μM tail vein) | Tumor weight ([5]; 30 μM tail vein) | RTV ([5]; 50 μM tail vein) | T/C (%) ([5]; 50 μM tail vein) | Tumor inhibition rate (%) ([5]; 50 μM tail vein) | Tumor weight ([5]; 50 μM tail vein) | body weights of mice ([6]; mouse, in vivo) | body weights of mice ([4]; A549 model, during 8 times of administration) | body weights of mice ([6]; MDA-MB-231 model, during 8 times of administration) |
| --- | --- | --- | --- | --- | --- | --- | --- | --- | --- | --- | --- | --- | --- | --- | --- | --- | --- | --- | --- | --- |
| CC(C)[C@]12O[C@H]1[C@@H]1O[C@]13[C@]1(O[C@H]1C[C@H]1C4=C(CC[C@@]13C)C(=O)OC4)[C@@H]2O [TP, Triptolide] | insoluble in water | 9.01 ± 0.25 | 5.98 ± 0.21 | 2 to 10 | basically maintained in the tolerable range of animal toxicity and side-effects | 26.1 ± 0.09 | 51.81 | 27.27 | 2.47 ± 0.08 | 17.91 ± 0.27 | 31.59 | 48.48 | 1.79 ± 0.19 | 10.92 ± 0.15 | 89.93 | 63.64 | 1.29 ± 0.27 | basically maintained in the tolerable range of animal toxicity and side-effects |  |  |
| AS1411: nucleolin aptamer, single-stranded oligonucleotide, SEQ ID NO: 1 GGTGGTGGTGGTTGTGGTGGTGGTGG |  |  |  |  |  | 34.57 ± 0.18 | 89.93 | 6.06 | 3.16 ± 0.13 | 31.09 ± 0.27 | 75.76 | 15.15 | 2.88 ± 0.26 | 26.19 ± 0.38 | 70.06 | 21.21 | 2.61 ± 0.38 |  | basically maintained in the tolerable range of animal toxicity and side-effects | basically maintained in the tolerable range of animal toxicity and side-effects |
